Laboratory results taken from PubChem BioAssay AID1963986 (Molecular Pharmacology Branch, DTP, NCI, 2024).

System: 171881-019-R-J1-PDC tumor spheroid viability
Assay: Anticancer human tumor 171881-019-R-J1-PDC patient-derived invasive breast carcinoma cell line growth inhibition [PI3K]
Conditions: spheroids with HUVEC and MSC; for IC50: curve of first compound; for viability, T/C: stronger effect = lower value
Outline: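 We assembled tumor spheroids that included a stromal compartment of HUVEC and MSCs, then exposed them to targeted agents alone and together with PI3K pathway inhibitors. Concentration series descended by half-log from clinically achievable Cmax levels. Viability served as the endpoint.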
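Also: spheroids exposed to compound for 7 days before viability read.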
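For viability, T/C in this document: 100% = DMSO vehicle-treated spheroids.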

CNC(=O)c1ccc(N2C(=S)N(c3ccc(C#N)c(C(F)(F)F)c3)C(=O)C2(C)C)cc1F + COc1c(OCCCN2CCOCC2)ccc2c3n(c(=NC(=O)c4cnc(N)nc4)nc12)CCN3
IC50 (second compound 0.00316 µM): > 10000 nM | IC50 (second compound 0.01 µM): < 31.6 nM | IC50 (second compound 0.0316 µM): < 31.6 nM | IC50 (second compound 0.1 µM): < 31.6 nM | IC50 (second compound 0.316 µM): < 31.6 nM | IC50 (second compound 1 µM): < 31.6 nM | viability, T/C (second compound 0.00316 µM, first compound 0.0316 µM): 64% | viability, T/C (second compound 0.00316 µM, first compound 0.1 µM): 77.1% | viability, T/C (second compound 0.00316 µM, first compound 0.316 µM): 68.7% | viability, T/C (second compound 0.00316 µM, first compound 1 µM): 80.8% | viability, T/C (second compound 0.00316 µM, first compound 3.16 µM): 62.1% | viability, T/C (second compound 0.00316 µM, first compound 10 µM): 61.8% | viability, T/C (second compound 0.01 µM, first compound 0.0316 µM): 46.4% | viability, T/C (second compound 0.01 µM, first compound 0.1 µM): 48% | viability, T/C (second compound 0.01 µM, first compound 0.316 µM): 53.4% | viability, T/C (second compound 0.01 µM, first compound 1 µM): 50.3% | viability, T/C (second compound 0.01 µM, first compound 3.16 µM): 43.5% | viability, T/C (second compound 0.01 µM, first compound 10 µM): 43.5% | viability, T/C (second compound 0.0316 µM, first compound 0.0316 µM): 28% | viability, T/C (second compound 0.0316 µM, first compound 0.1 µM): 27.9% | viability, T/C (second compound 0.0316 µM, first compound 0.316 µM): 28% | viability, T/C (second compound 0.0316 µM, first compound 1 µM): 24.5% | viability, T/C (second compound 0.0316 µM, first compound 3.16 µM): 25.8% | viability, T/C (second compound 0.0316 µM, first compound 10 µM): 21.8% | viability, T/C (second compound 0.1 µM, first compound 0.0316 µM): 9.2% | viability, T/C (second compound 0.1 µM, first compound 0.1 µM): 7.58% | viability, T/C (second compound 0.1 µM, first compound 0.316 µM): 7.75% | viability, T/C (second compound 0.1 µM, first compound 1 µM): 8.13% | viability, T/C (second compound 0.1 µM, first compound 3.16 µM): 8.01% | viability, T/C (second compound 0.1 µM, first compound 10 µM): 7.49% | viability, T/C (second compound 0.316 µM, first compound 0.0316 µM): 2.27% | viability, T/C (second compound 0.316 µM, first compound 0.1 µM): 1.99% | viability, T/C (second compound 0.316 µM, first compound 0.316 µM): 2.25% | viability, T/C (second compound 0.316 µM, first compound 1 µM): 2.17% | viability, T/C (second compound 0.316 µM, first compound 3.16 µM): 2.25% | viability, T/C (second compound 0.316 µM, first compound 10 µM): 3.05% | viability, T/C (second compound 1 µM, first compound 0.0316 µM): 1.38% | viability, T/C (second compound 1 µM, first compound 0.1 µM): 1.14% | viability, T/C (second compound 1 µM, first compound 0.316 µM): 1.18% | viability, T/C (second compound 1 µM, first compound 1 µM): 1.73% | viability, T/C (second compound 1 µM, first compound 3.16 µM): 1.02% | viability, T/C (second compound 1 µM, first compound 10 µM): 1.64%

Cn1cnc2c(F)c(Nc3ccc(Br)cc3Cl)c(C(=O)NOCCO)cc21 + COc1c(OCCCN2CCOCC2)ccc2c3n(c(=NC(=O)c4cnc(N)nc4)nc12)CCN3
IC50 (second compound 0.00316 µM): 59 nM | IC50 (second compound 0.01 µM): < 9.49 nM | IC50 (second compound 0.0316 µM): < 9.49 nM | IC50 (second compound 0.1 µM): < 9.49 nM | IC50 (second compound 0.316 µM): < 9.49 nM | IC50 (second compound 1 µM): < 9.49 nM | viability, T/C (second compound 0.00316 µM, first compound 0.00949 µM): 55.7% | viability, T/C (second compound 0.00316 µM, first compound 0.03 µM): 59.1% | viability, T/C (second compound 0.00316 µM, first compound 0.0949 µM): 43.1% | viability, T/C (second compound 0.00316 µM, first compound 0.3 µM): 37.1% | viability, T/C (second compound 0.00316 µM, first compound 0.949 µM): 21.8% | viability, T/C (second compound 0.00316 µM, first compound 3 µM): 9.21% | viability, T/C (second compound 0.01 µM, first compound 0.00949 µM): 39.5% | viability, T/C (second compound 0.01 µM, first compound 0.03 µM): 39.4% | viability, T/C (second compound 0.01 µM, first compound 0.0949 µM): 31.9% | viability, T/C (second compound 0.01 µM, first compound 0.3 µM): 24.2% | viability, T/C (second compound 0.01 µM, first compound 0.949 µM): 14% | viability, T/C (second compound 0.01 µM, first compound 3 µM): 4.9% | viability, T/C (second compound 0.0316 µM, first compound 0.00949 µM): 20.8% | viability, T/C (second compound 0.0316 µM, first compound 0.03 µM): 18.8% | viability, T/C (second compound 0.0316 µM, first compound 0.0949 µM): 16.9% | viability, T/C (second compound 0.0316 µM, first compound 0.3 µM): 10.5% | viability, T/C (second compound 0.0316 µM, first compound 0.949 µM): 6.05% | viability, T/C (second compound 0.0316 µM, first compound 3 µM): 1.88% | viability, T/C (second compound 0.1 µM, first compound 0.00949 µM): 6.77% | viability, T/C (second compound 0.1 µM, first compound 0.03 µM): 5.8% | viability, T/C (second compound 0.1 µM, first compound 0.0949 µM): 4.51% | viability, T/C (second compound 0.1 µM, first compound 0.3 µM): 2.81% | viability, T/C (second compound 0.1 µM, first compound 0.949 µM): 1.28% | viability, T/C (second compound 0.1 µM, first compound 3 µM): 0.8% | viability, T/C (second compound 0.316 µM, first compound 0.00949 µM): 1.87% | viability, T/C (second compound 0.316 µM, first compound 0.03 µM): 2.04% | viability, T/C (second compound 0.316 µM, first compound 0.0949 µM): 1.3% | viability, T/C (second compound 0.316 µM, first compound 0.3 µM): 0.68% | viability, T/C (second compound 0.316 µM, first compound 0.949 µM): 0.42% | viability, T/C (second compound 0.316 µM, first compound 3 µM): 0.28% | viability, T/C (second compound 1 µM, first compound 0.00949 µM): 0.82% | viability, T/C (second compound 1 µM, first compound 0.03 µM): 1.37% | viability, T/C (second compound 1 µM, first compound 0.0949 µM): 0.93% | viability, T/C (second compound 1 µM, first compound 0.3 µM): 1.07% | viability, T/C (second compound 1 µM, first compound 0.949 µM): 0.79% | viability, T/C (second compound 1 µM, first compound 3 µM): 0.56%
